From paper PMC6112376, “Comprehensive Analyses and Prioritization of Tox21 10K Chemicals Affecting Mitochondrial Function by in-Depth Mechanistic Studies” (Environmental Health Perspectives, 2018)
Read-outs that look alike come from different tables or passages of the source.

How the values were obtained:
HepG2 cells [1] = settings: cited from earlier work; for IC50: read-out: MMP assays IC50 (µM) qHTS-HepG2
rat primary hepatocytes [2] = assay: MMP assay in rat primary hepatocytes; settings: Rattus norvegicus, Hepatocyte
[3] = system: Caenorhabditis elegans (Bristol N2); assay: C. elegans larval development and growth assay
[4] = system: Caenorhabditis elegans strain PE255; assay: In vivo C. elegans ATP status assay; settings: for minimal effective concentration: Caenorhabditis elegans, read-out: LEC LUM: lowest effect concentration for luminescence, a measure of nematode ATP content
HepG2 cells [5] = assay: ROS-Glo hydrogen peroxide (ROS) assay; assay type: cell-based, human
[6] = system: isolated rat liver mitochondria; assay: Oxygen consumption, Clark-type oxygen electrode; assay type: biochemical
[7] = system: p53 (p53-bla HCT-116 cells); assay: p53 β-lactamase reporter gene assay; assay type: cell-based, human; settings: 16 h incubation, mean±SD of three experiments
rat primary hepatocytes [8] = system: rat primary hepatocytes
HepG2 cells [9] = assay: cells; settings: Homo sapiens; for Emax: HepG2, read-out: MMP assays efficacy (%) HepG2
HepG2 cells [10] = assay: Intracellular ATP content (cell viability) assay; assay type: cell-based, human; settings: for IC50: Homo sapiens, HepG2, 40 h
hNSC = assay: MMP assay in human neural stem cells (hNSC); assay type: cell-based; settings: Homo sapiens, Neural stem cell, 1 h, read-out: hNSC IC50 (MMP)
[11] = system: Nrf2/ARE (ARE-bla HepG2 cells); assay: ARE β-lactamase reporter gene assay; assay type: cell-based, human; settings: 16 h incubation, mean±SD of three experiments
[12] = system: HeLa cells expressing YFP-Parkin; assay: Parkin translocation assay; assay type: cell-based, human
[13] = 1 h, read-out: Rat hepatocytes IC50 (MMP)
[14] = read-out: MMP assays IC50 (µM) Rat Hepatocytes
[15] = HepG2, 1 h, read-out: HepG2 IC50 Galactose (MMP)
[16] = HepG2, 1 h, read-out: HepG2 IC50 Glucose (MMP)

SMILES: N#CC(c1ccc(Cl)cc1)c1c(Cl)cc(-n2ncc(=O)[nH]c2=O)cc1Cl (stereo not drawn) [Diclazuril, reference compound]
- MMP assays efficacy (%) qHTS-HepG2 (HepG2 cells [1]): -108±7%
- IC50 (HepG2 cells [1]): 11.2 ± 2.79 µM
- IC50 (rat primary hepatocytes [2]; [13]): 11.5 µM
- IC50 (rat primary hepatocytes [2]; [14]): 5.7 ± 1.94 µM
- LEC (lowest effect concentration), larval growth assay ([3]; 48 h exposure): < 10 µM
- minimal effective concentration ([3]; Caenorhabditis elegans, read-out: LEC EXT: lowest effect concentration for extinction, a measure of nematode size): 2.5 µM
- LEC (lowest effect concentration), ATP assay ([4]; 24 h exposure): < 10 µM
- minimal effective concentration [4]: 5 µM
- ROS (HepG2) EC50 (HepG2 cells [5]): Inactive
- I-ADP, % of control (O2 consumption rate) ([6]; 0.16 µM, glutamate/malate driven state 3 respiration, isolated rat liver mitochondria): 96 (22.7) % of control
- I-sub, % of control (O2 consumption rate) ([6]; 0.16 µM, glutamate/malate driven state 4 respiration, isolated rat liver mitochondria): 174 (24.7) % of control
- II-ADP, % of control (O2 consumption rate) ([6]; 0.16 µM, succinate-driven state 3 respiration, isolated rat liver mitochondria): 99 (32.7) % of control
- II-sub, % of control (O2 consumption rate) ([6]; 0.16 µM, succinate-driven state 4 respiration, isolated rat liver mitochondria): 168 (35.8) % of control
- I-ADP, % of control (O2 consumption rate) ([6]; 0.8 µM, glutamate/malate driven state 3 respiration, isolated rat liver mitochondria): 95 (41.4) % of control
- I-sub, % of control (O2 consumption rate) ([6]; 0.8 µM, glutamate/malate driven state 4 respiration, isolated rat liver mitochondria): 290 (38.0) % of control
- II-ADP, % of control (O2 consumption rate) ([6]; 0.8 µM, succinate-driven state 3 respiration, isolated rat liver mitochondria): 88 (59.6) % of control
- II-sub, % of control (O2 consumption rate) ([6]; 0.8 µM, succinate-driven state 4 respiration, isolated rat liver mitochondria): 263 (54.9) % of control
- I-ADP, % of control (O2 consumption rate) ([6]; 4 µM, glutamate/malate driven state 3 respiration, isolated rat liver mitochondria): 45 (41.9) % of control
- I-sub, % of control (O2 consumption rate) ([6]; 4 µM, glutamate/malate driven state 4 respiration, isolated rat liver mitochondria): 115 (22.8) % of control
- II-ADP, % of control (O2 consumption rate) ([6]; 4 µM, succinate-driven state 3 respiration, isolated rat liver mitochondria): 55 (67.2) % of control
- II-sub, % of control (O2 consumption rate) ([6]; 4 µM, succinate-driven state 4 respiration, isolated rat liver mitochondria): 103 (35.2) % of control
- I-ADP, % of control (O2 consumption rate) ([6]; 20 µM, glutamate/malate driven state 3 respiration, isolated rat liver mitochondria): 95 (41.4) % of control
- I-sub, % of control (O2 consumption rate) ([6]; 20 µM, glutamate/malate driven state 4 respiration, isolated rat liver mitochondria): 124 (16.3) % of control
- II-ADP, % of control (O2 consumption rate) ([6]; 20 µM, succinate-driven state 3 respiration, isolated rat liver mitochondria): 101 (68.5) % of control
- II-sub, % of control (O2 consumption rate) ([6]; 20 µM, succinate-driven state 4 respiration, isolated rat liver mitochondria): 127 (26.6) % of control
- I-ADP, % of control (O2 consumption rate) ([6]; 100 µM, glutamate/malate driven state 3 respiration, isolated rat liver mitochondria): 94 (41.1) % of control
- I-sub, % of control (O2 consumption rate) ([6]; 100 µM, glutamate/malate driven state 4 respiration, isolated rat liver mitochondria): 115 (15.1) % of control
- II-ADP, % of control (O2 consumption rate) ([6]; 100 µM, succinate-driven state 3 respiration, isolated rat liver mitochondria): 101 (68.3) % of control
- II-sub, % of control (O2 consumption rate) ([6]; 100 µM, succinate-driven state 4 respiration, isolated rat liver mitochondria): 114 (23.8) % of control
- EC50 ([7]; Homo sapiens): 27.9 ± 6.48 µM
- MMP assays efficacy (%) Rat Hepatocytes (rat primary hepatocytes [8]): -114±26%
- Rat hepatocytes (efficacy) (MMP) (rat primary hepatocytes [8]): 11.5±5.18 ( −72.8±2.37 ) %
- IC50 (HepG2 cells [9]; [15]): 46.3 µM
- IC50 (HepG2 cells [9]; [16]): 38.3 µM
- Emax (HepG2 cells [9]): 99%
- IC50 (HepG2 cells [10]; read-out: ATP (HepG2, galactose) IC50): 43.4 µM
- IC50 (HepG2 cells [10]; read-out: ATP (HepG2, glucose) IC50): 50.4 µM
- IC50 (hNSC): 20.6 µM
- EC50 ([11]; Homo sapiens, HepG2, read-out: ARE (HepG2) EC50): 10.9 µM
- Parkin recruitment [12]: Inactive

SMILES: O=C(Nc1ccccc1)Nc1ccccc1 [Diphenylurea]
- MMP assays efficacy (%) qHTS-HepG2 (HepG2 cells [1]): -111±9%
- IC50 (HepG2 cells [1]): 1.6 ± 0.74 µM
- IC50 (rat primary hepatocytes [2]; [13]): 15.4 µM
- IC50 (rat primary hepatocytes [2]; [14]): 8.46 ± 2.39 µM
- EXT: mean difference in nematode size relative to plate controls ([3]; 0.5 µM): 0.0636
- EXT: mean difference in nematode size relative to plate controls ([3]; 1 µM): 0.005834
- EXT: mean difference in nematode size relative to plate controls ([3]; 5 µM): -0.06608
- EXT: mean difference in nematode size relative to plate controls ([3]; 10 µM): 0.006337
- EXT: mean difference in nematode size relative to plate controls ([3]; 25 µM): 0.05471
- EXT: mean difference in nematode size relative to plate controls ([3]; 50 µM): 0.1792
- EXT: mean difference in nematode size relative to plate controls ([3]; 75 µM): 0.1069
- EXT: mean difference in nematode size relative to plate controls ([3]; 100 µM): 0.0228
- effect on larval growth (in words) ([3]; 0.5–100μM): did not affect growth
- LUM: mean difference in luminescence (ATP content) relative to plate controls ([4]; 0.5 µM): 0.08612
- LUM: mean difference in luminescence (ATP content) relative to plate controls ([4]; 1 µM): 0.1632
- LUM: mean difference in luminescence (ATP content) relative to plate controls ([4]; 5 µM): 0.3729
- LUM: mean difference in luminescence (ATP content) relative to plate controls ([4]; 10 µM): 1.1516
- LUM: mean difference in luminescence (ATP content) relative to plate controls ([4]; 25 µM): 1.501
- LUM: mean difference in luminescence (ATP content) relative to plate controls ([4]; 50 µM): 1.222
- LUM: mean difference in luminescence (ATP content) relative to plate controls ([4]; 75 µM): 0.9702
- LUM: mean difference in luminescence (ATP content) relative to plate controls ([4]; 100 µM): 0.9744
- effect on ATP content (in words) ([4]; 0.5–100μM): statistically significant decreases in ATP content
- minimal effective concentration [4]: 10 µM
- ROS (HepG2) EC50 (HepG2 cells [5]): Inactive
- Potential Mechanism [6]: Uncoupler at low concentrations (20 µM), and Uncoupler + inhibitor at high concentrations (100 µM)
- I-ADP, % of control (O2 consumption rate) ([6]; 0.8 µM): 97 (36.2) % of control
- I-sub, % of control (O2 consumption rate) ([6]; 0.8 µM): 105 (11.3) % of control
- II-ADP, % of control (O2 consumption rate) ([6]; 0.8 µM): 91 (57.2) % of control
- II-sub, % of control (O2 consumption rate) ([6]; 0.8 µM): 106 (19.6) % of control
- I-ADP, % of control (O2 consumption rate) ([6]; 4 µM): 93 (34.6) % of control
- I-sub, % of control (O2 consumption rate) ([6]; 4 µM): 104 (11.2) % of control
- II-ADP, % of control (O2 consumption rate) ([6]; 4 µM): 83 (52.5) % of control
- II-sub, % of control (O2 consumption rate) ([6]; 4 µM): 97 (18.0) % of control
- I-ADP, % of control (O2 consumption rate) ([6]; 20 µM): 96 (35.6) % of control
- I-sub, % of control (O2 consumption rate) ([6]; 20 µM): 144 (15.5) % of control
- II-ADP, % of control (O2 consumption rate) ([6]; 20 µM): 91 (57.6) % of control
- II-sub, % of control (O2 consumption rate) ([6]; 20 µM): 129 (23.9) % of control
- I-ADP, % of control (O2 consumption rate) ([6]; 100 µM): 38 (19.1) % of control
- I-sub, % of control (O2 consumption rate) ([6]; 100 µM): 167 (35.8) % of control
- II-ADP, % of control (O2 consumption rate) ([6]; 100 µM): 25 (15.1) % of control
- II-sub, % of control (O2 consumption rate) ([6]; 100 µM): 55 (19.1) % of control
- p53 (HCT-116) EC50 [7]: Inactive
- MMP assays efficacy (%) Rat Hepatocytes (rat primary hepatocytes [8]): -72±30%
- Rat hepatocytes (efficacy) (MMP) (rat primary hepatocytes [8]): 15.4±2.88 ( −117±8.21 ) %
- IC50 (HepG2 cells [9]; [15]): 10.3 µM
- IC50 (HepG2 cells [9]; [16]): 7.73 µM
- IC50 (HepG2 cells [9]; HepG2, read-out: MMP assays IC50 (µM) HepG2): 2.51 µM
- Emax (HepG2 cells [9]): 131%
- ATP (HepG2, galactose) IC50 (HepG2 cells [10]): Inactive
- ATP (HepG2, glucose) IC50 (HepG2 cells [10]): Inactive
- IC50 (hNSC): 12.1 µM
- ARE (HepG2) EC50 [11]: Inactive
- Parkin recruitment [12]: Inactive
